Reference: US20040141995A1, “MHC class I-restricted and MHC class II-restricted EBNA1 peptides” (priority 2002, published 2004)
Read-outs that look alike come from different tables or passages of the source.

Tests used:
Assay type in all cases: cell-based, human
[1] = system: 1359mel-specific CD8+ T cell recognition of 1359mel cells
Experimental: (§1) Target cells were incubated with various protease inhibitors for 2 h, washed and co-cultured with CD8^+ T cells overnight for IFN-γ release assays. Solvents used to solubilize inhibitors were also used as controls. […] Target cells were treated with different concentrations of protease inhibitors. After washes, the treated cells were co-cultured with M3-W1-B9 CD8^+ T cells overnight for IFN-γ release assays.
To test whether TPCK or AEBSF affected T cell recognition of other antigens, 1359mel were treated with the same concentrations of TPCK or AEBSF as described in FIG. 14A. […] AEBSF is an irreversible, specific inhibitor of serine proteases, while TPCK is an irreversible inhibitor of chymotrypsin and many other serine and cysteine proteases.

[2] = system: M3-W1-B9 CD8+ T cell recognition of HEK293/B8/EBNA1-GFP, LCL111 and 1359mel/EBNA1-GFP target cells; experiment: Effect of inhibitors on M3W1-B9 CD8+ T cell recognition of EBNA1-expressing target cells (IFN-γ release); details: for dose dependence of inhibition of M3-W1-B9 CD8+ T cell recognition of HEK293/B8/EBNA1-GFP target cells: different concentrations of protease inhibitors (FIG. 14C); for effect on M3W1-B9 CD8+ T cell recognition of HEK293 transfected with HLA-B8 plus EBNA1-GFP: target cells treated with inhibitor, co-cultured with T cells overnight, IFN-γ release
Experimental: (§2) HEK 293 cells co-transfected with EBNA1-GFP were treated with various concentrations of ZAL inhibitor for 10 h. After washing, cells were incubated with T cells overnight for IFN-γ release assays. Various dilutions of DMSO were used as controls. T cell activity in the absence of inhibitor was used as 100% activity.
(§3) HLA-B8 expressing HEK293/EBNA1-GFP target cells were treated with an emetine inhibitor at three concentrations for 1h. After three washings, cells were co-cultured with M3-W1-B9 CD8^+ T cells overnight for IFN-γ release assays. […] HLA-B8 positive 1359 cells with the EBNA1-P518-526 peptide after the treatment of 1359mel cells were pulsed with 3 different concentration of emetine. FIG. 13B illustrates the determination of the sensitivity of recognition of TRP2-specific CD8 T cells to the treatment with emetine. 1363mel cells were treated with 3 different concentrations of emetine. After 3 washes, the cells were co-cultured with TRP2-specific CD8 ^+ T cells. The treated cells pulsed with a TRP2 peptide were used to examine the effect of emetine on recognition of MHC class I/TRP2 complexes on the cell surface; and
as §1
Target cells were incubated in the absence or presence of various concentrations of inhibitors for different period of time, depending on the type of inhibitors used. The cells were then washed and counted and co-cultured with T cells overnight for IFN-γ release assays. The solvents used to dissolve the inhibitors, such as DMSO, methanol and ethanol were also used as controls.
(§4) HEK293 cells were transfected with EBNA1-GFP and HLA-B8 cDNAs, and then treated them with different concentrations of ZAL and lactacystin, specific inhibitors of proteasomes. […] To exclude the potential nonspecific effect of ZAL on T cell recognition, the effects of ZAL inhibitor were tested on melanoma-reactive TIL102-CD4^+ T cells, which recognize a MHC class II-restricted epitope on the cell surface of 102mel tumor cells, and of P3-B7 CD4^+ T cells, which recognize HLA-DP3 expressing HEK293 cells transfected with Ii-EBNA1 as target cells. […] The effects of lactacystin, another specific proteasome inhibitor, were also tested on T cell recognition.
HLA-B8 expressing HEK293/EBNA1-GFP cells were treated with different concentrations of irreversible (emetine) and reversible (puromycin and cycloheximide) protein synthesis inhibitors for 1 h. After washing to remove inhibitors, the treated cells were co-cultured with antigen-specific CD8^+ T cells. […] Since blocking protein synthesis should rapidly decrease the peptide supply required for the export of MHC class I molecules from the ER to the cell surface as well as synthesis of MHC class I molecules, the treatment of cells with emetine would decrease the overall antigen presentation by MHC class I molecules.

[3] = system: P3-B7 CD4+ T cell recognition of HEK293/DP3/Ii-EBNA1 target cells; experiment: Effect of inhibitors on P3-B7 CD4+ T cell recognition of EBNA1 target cells; details: Homo sapiens, CD4+ T cell; 1 μM emetine; read-out: inhibition of EBNA1-specific P3-B7 CD4+ T cell recognition
Experimental: as §2, §4
HLA-B8 positive 1359mel cells were pulsed with the EBNA1-P518-526 peptide after the cells were treated with different concentrations of emetine and washed. […] 1363mel cells (TRP2^+ and HLA-A2^+) were treated with different concentrations of emetine, and then tested for their ability to stimulate TRP2-specific CD8^+ T cells. […]

[4] = system: TRP2-specific CD8+ T cell recognition of 1363mel cells; experiment: Effect of emetine on recognition of 1363mel cells by TRP2-specific CD8+ T cells
Experimental: as §3
HLA-B8 positive 1359mel cells were pulsed with the EBNA1-P518-526 peptide after the cells were treated with different concentrations of emetine and washed. […] 1363mel cells (TRP2^+ and HLA-A2^+) were treated with different concentrations of emetine, and then tested for their ability to stimulate TRP2-specific CD8^+ T cells. […] However, there was only 30% inhibition of T cell recognition at 1 μM emetine treatment compared with over 90% inhibition of EBNA1-specific CD8^+ T cells at the same concentration of emetine (FIG. 13A). […] On the other hand, the processing and presentation of the TRP2 and CD4^+ T cell EBNA1 epitopes are less dependent on the production of short-lived DRiPs.

Row | Compound | inhibition of recognition of 1359mel cells by 1359mel-specific CD8+ T cells [1] | dose dependence of inhibition of M3-W1-B9 CD8+ T cell recognition of HEK293/B8/EBNA1-GFP target cells [2] | effect on M3W1-B9 CD8+ T cell recognition of HEK293 transfected with HLA-B8 plus EBNA1-GFP ([2]; washed) | inhibition at 1 µM [3] [%] | effect on T cell recognition of TRP2 peptide-pulsed target cells after inhibitor treatment [4] | inhibition at 1 µM ([4]; Homo sapiens, T-cell, 1 μM emetine, read-out: inhibition of recognition of 1363mel target cells by TRP2-specific CD8+ T cells) [%] | concentration dependence of inhibition of recognition of 1363mel target cells by TRP2-specific CD8+ T cells ([4]; different concentrations of emetine) | inhibition of M3W1-B9 CD8+ T cell recognition of HLA-B8 expressing HEK293/EBNA1-GFP target cells ([2]; 5 μM inhibitor for 1 h) | inhibition at 1 µM ([2]; Homo sapiens, T-cell, 1 h, 1 μM inhibitor for 1 h, read-out: inhibition of M3W1-B9 CD8+ T cell recognition of HLA-B8 expressing HEK293/EBNA1-GFP target cells) [%] | effect on T cell recognition of 1359mel cells pulsed with EBNA1-P518-526 peptide after inhibitor treatment ([2]; different concentrations of emetine, washed, then peptide-pulsed) | inhibition of recognition of 1359mel cells by 1359mel-specific CD8+ T cells ([1]; same inhibitor concentrations as FIG. 14A)
1 | Cc1ccc(S(=O)(=O)N[C@@H](Cc2ccccc2)C(=O)CCl)cc1 [TPCK] | No inhibition | in a dose-dependent manner | significantly blocked | – | – | – | – | – | – | – | –
2 | CC[C@H]1CN2CCc3cc(OC)c(OC)cc3[C@@H]2C[C@@H]1C[C@H]1NCCc2cc(OC)c(OC)cc21 [emetine] | – | – | – | 20 | slightly inhibited | 30 | increased with the increasing concentrations | completely inhibited | 94 | slightly inhibited | –
3 | NCCc1ccc(S(=O)(=O)F)cc1 [AEBSF] | – | in a dose-dependent manner | significantly blocked | – | – | – | – | – | – | – | No inhibition
